Measurements published in patent US10144706B2 (BRISTOL-MYERS SQUIBB COMPANY, priority 2016, dated 2018).
Read-outs that look alike come from different tables or passages of the source.

Target: T1, PD-1/PD-L1 interaction (PD-1-Ig / PD-L1-His) (Homo sapiens, UniProt Q9NZQ7)
T1 construct: hPDL1(18-239)-TVMV-His; TVMV protease site linker (C); made in house; host or cells: HEK293T
Assay: PD-1/PD-L1 Homogenous Time-Resolved Fluorescence (HTRF) binding assay
Conditions: PD-L1-His 10 nM, PD-1-Ig 20 nM, read-out: Range or IC50
How it was run: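 HTRF detection used 1 nM europium-cryptate anti-Ig and 20 nM APC anti-His. Compounds first saw 10 nM PD-L1-His for 15 min, and 20 nM PD-1-Ig was then added for another 15 min. Buffer was dPBS plus 0.1% BSA and 0.05% Tween-20. All concentrations are final.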

T1 sequence (Q9NZQ7 with tags, fused parts or gaps): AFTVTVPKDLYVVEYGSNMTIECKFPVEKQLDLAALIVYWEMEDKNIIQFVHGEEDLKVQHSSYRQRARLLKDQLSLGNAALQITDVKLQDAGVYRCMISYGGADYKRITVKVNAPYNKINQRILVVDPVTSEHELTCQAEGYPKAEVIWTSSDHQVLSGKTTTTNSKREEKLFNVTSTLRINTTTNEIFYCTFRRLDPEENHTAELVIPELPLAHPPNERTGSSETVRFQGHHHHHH

**Q.** Which IC50 (IC50 range class) does the source give for `CC(=O)c1cc(Cl)c(OCc2cccc(-c3cccc(COc4cc(OCc5cncc(C#N)c5)c(CN[C@H](C(=O)O)[C@@H](C)O)cc4Cl)c3C)c2C)cc1OCc1cncc(C#N)c1` [Example 60020] here?
**A.** The IC50 was 0.04 to 20 nM.

**Q.** How did the IC50 (numeric IC50) turn out when `CC(=O)c1cc(Cl)c(OCc2cccc(-c3cccc(COc4cc(OCc5cncc(C#N)c5)c(CNC(C)(CO)C(=O)O)cc4Cl)c3C)c2C)cc1OCc1cncc(C#N)c1` (centres unmarked) [Example 60030] was run?
**A.** The IC50 was 6 nM.

**Q.** Which IC50 (IC50 range class) does the source give for `CC(=O)c1cc(Cl)c(OCc2cccc(-c3cccc(COc4cc(OCc5cncc(C#N)c5)c(CN[C@](C)(CO)C(=O)O)cc4Cl)c3Cl)c2Cl)cc1OCc1cncc(C#N)c1` [Example 60040] here?
**A.** The IC50 was 0.04 to 20 nM.

**Q.** `CC(=O)c1cc(Cl)c(OCc2cccc(-c3cccc(COc4cc(OCc5cncc(C#N)c5)c(CN[C@H](C(=O)O)[C@@H](C)[C@H](C)O)cc4Cl)c3C)c2C)cc1OCc1cncc(C#N)c1` [Example 60050] was tested. Which IC50 (IC50 range class) did it give?
**A.** Its IC50 is 0.04 to 20 nM.

**Q.** How did the IC50 (IC50 range class) turn out when `CC(=O)c1cc(Cl)c(OCc2cccc(-c3cccc(COc4cc(OCc5cncc(C#N)c5)c(CNC(C)(CO)C(=O)O)cc4Cl)c3Cl)c2Cl)cc1OCc1cncc(C#N)c1` (centres unmarked) [Example 60060] was run?
**A.** Its IC50 is 0.04 to 20 nM.

**Q.** How did the IC50 (IC50 range class) turn out when `CC(=O)c1cc(Cl)c(OCc2cccc(-c3cccc(COc4cc(OCc5cncc(C#N)c5)c(CN[C@@](C)(CO)C(=O)O)cc4Cl)c3C)c2C)cc1OCc1cncc(C#N)c1` [Example 60070] was run?
**A.** The IC50 was 0.04 to 20 nM.

**Q.** `CC(=O)c1cc(Cl)c(OCc2cccc(-c3cccc(COc4cc(OCc5cncc(C#N)c5)c(CN[C@@](C)(CO)C(=O)O)cc4Cl)c3Cl)c2Cl)cc1OCc1cncc(C#N)c1` [Example 60080] was tested. Which IC50 (IC50 range class) did it give?
**A.** The IC50 was 0.04 to 20 nM.

**Q.** Which IC50 (IC50 range class) does the source give for `CC(=O)c1cc(Cl)c(OCc2cccc(-c3cccc(COc4cc(OCc5cncc(C#N)c5)c(CN[C@@H](C(=O)O)[C@H](C)O)cc4Cl)c3C)c2C)cc1OCc1cncc(C#N)c1` [Example 60090] here?
**A.** The IC50 was 20.1 to 90 nM.

**Q.** `Cc1c(COc2cc(OCc3cncc(C#N)c3)c(Cl)cc2Cl)cccc1-c1cccc(COc2cc(OCc3cncc(C#N)c3)c(CN[C@H](C(=O)O)[C@@H](C)O)cc2Cl)c1C` [Example 70010] was tested. Which IC50 (IC50 range class) did it give?
**A.** The IC50 was 90.1 to 1000 nM.

**Q.** Which IC50 (IC50 range class) does the source give for `Cc1c(COc2cc(OCc3cncc(C#N)c3)c(Cl)cc2Cl)cccc1-c1cccc(COc2cc(OCc3cncc(C#N)c3)c(CN[C@](C)(CO)C(=O)O)cc2Cl)c1C` [Example 70020] here?
**A.** The IC50 was 0.04 to 20 nM.

**Q.** `Cc1c(COc2cc(OCc3cncc(C#N)c3)c(Cl)cc2Cl)cccc1-c1cccc(COc2cc(OCc3cncc(C#N)c3)c(CNC(C)(CO)C(=O)O)cc2Cl)c1C` (centres unmarked) [Example 70030] was tested. Which IC50 (IC50 range class) did it give?
**A.** Its IC50 is 20.1 to 90 nM.

**Q.** `Cc1c(COc2cc(OCc3cncc(C#N)c3)c(Cl)cc2Cl)cccc1-c1cccc(COc2cc(OCc3cncc(C#N)c3)c(CN[C@@H](C(=O)O)[C@H](C)O)cc2Cl)c1C` [Example 70040] was tested. Which IC50 (numeric IC50) did it give?
**A.** Its IC50 is 1050 nM.

**Q.** `Cc1c(COc2cc(OCc3cncc(C#N)c3)c(Cl)cc2Cl)cccc1-c1cccc(COc2cc(OCc3cncc(C#N)c3)c(CN[C@H](C(=O)O)[C@@H](C)[C@H](C)O)cc2Cl)c1C` [Example 70050] was tested. Which IC50 (IC50 range class) did it give?
**A.** The IC50 was 90.1 to 1000 nM.

**Q.** Which IC50 (IC50 range class) does the source give for `Cc1c(COc2cc(OCc3cncc(C#N)c3)c(Cl)cc2Cl)cccc1-c1cccc(COc2cc(OCc3cncc(C#N)c3)c(CN[C@@](C)(CO)C(=O)O)cc2Cl)c1C` [Example 70060] here?
**A.** The IC50 was 20.1 to 90 nM.

**Q.** How did the IC50 (IC50 range class) turn out when `N#Cc1cncc(COc2cc(OCc3cccc(-c4cccc(COc5cc(OCc6cncc(C#N)c6)c(C(=O)N6CCC(=O)CC6)cc5Cl)c4Cl)c3Cl)c(Cl)cc2C(=O)N2CCC(=O)CC2)c1` [Example 80010] was run?
**A.** Its IC50 is 20.1 to 90 nM.

**Q.** `N#Cc1cncc(COc2cc(OCc3cccc(-c4cccc(COc5cc(OCc6cncc(C#N)c6)c(C(=O)NCCCO)cc5Cl)c4Cl)c3Cl)c(Cl)cc2C(=O)NCCCO)c1` [Example 80020] was tested. Which IC50 (IC50 range class) did it give?
**A.** The IC50 was 90.1 to 1000 nM.

**Q.** For `CN1CCN(C(=O)c2cc(Cl)c(OCc3cccc(-c4cccc(COc5cc(OCc6cncc(C#N)c6)c(C(=O)N6CCN(C)CC6)cc5Cl)c4Cl)c3Cl)cc2OCc2cncc(C#N)c2)CC1` [Example 80030], which IC50 (IC50 range class) is on record?
**A.** The IC50 was 0.04 to 20 nM.

**Q.** With `N#Cc1cncc(COc2cc(OCc3cccc(-c4cccc(COc5cc(OCc6cncc(C#N)c6)c(C(=O)N6CCCC(O)C6)cc5Cl)c4Cl)c3Cl)c(Cl)cc2C(=O)N2CCCC(O)C2)c1` (centres unmarked) [Example 80040] as the compound, how does the IC50 (IC50 range class) read?
**A.** Its IC50 is 20.1 to 90 nM.

**Q.** Which IC50 (IC50 range class) does the source give for `N#Cc1cncc(COc2cc(OCc3cccc(-c4cccc(COc5cc(OCc6cncc(C#N)c6)c(C(=O)N6CCOCC6)cc5Cl)c4Cl)c3Cl)c(Cl)cc2C(=O)N2CCOCC2)c1` [Example 80050] here?
**A.** The IC50 was 20.1 to 90 nM.

**Q.** With `N#Cc1cncc(COc2cc(OCc3cccc(-c4cccc(COc5cc(OCc6cncc(C#N)c6)c(C(=O)N6CCC(O)CC6)cc5Cl)c4Cl)c3Cl)c(Cl)cc2C(=O)N2CCC(O)CC2)c1` [Example 80060] as the compound, how does the IC50 (IC50 range class) read?
**A.** Its IC50 is 0.04 to 20 nM.

**Q.** `Cc1c(COc2cc(OCc3cncc(C#N)c3)c(C(=O)NCc3ccncn3)cc2Cl)cccc1-c1cccc(COc2cc(OCc3cncc(C#N)c3)c(C(=O)NCc3ccncn3)cc2Cl)c1C` [Example 80090] was tested. Which IC50 (IC50 range class) did it give?
**A.** The IC50 was 90.1 to 1000 nM.

**Q.** How did the IC50 (IC50 range class) turn out when `Cc1c(COc2cc(OCc3cncc(C#N)c3)c(C(=O)N3CCOCC3)cc2Cl)cccc1-c1cccc(COc2cc(OCc3cncc(C#N)c3)c(C(=O)N3CCOCC3)cc2Cl)c1C` [Example 80100] was run?
**A.** The IC50 was 0.04 to 20 nM.

**Q.** For `CC1CCN(C(=O)c2cc(Cl)c(OCc3cccc(-c4cccc(COc5cc(OCc6cncc(C#N)c6)c(C(=O)N6CCC(C)CC6)cc5Cl)c4Cl)c3Cl)cc2OCc2cncc(C#N)c2)CC1` [Example 80120], which IC50 (numeric IC50) is on record?
**A.** The IC50 was 105 nM.

**Q.** How did the IC50 (IC50 range class) turn out when `N#Cc1cncc(COc2cc(OCc3cccc(-c4cccc(COc5cc(OCc6cncc(C#N)c6)c(C(=O)N6CCS(=O)(=O)CC6)cc5Cl)c4Cl)c3Cl)c(Cl)cc2C(=O)N2CCS(=O)(=O)CC2)c1` [Example 80140] was run?
**A.** Its IC50 is 0.04 to 20 nM.

**Q.** `N#Cc1cncc(COc2cc(OCc3cccc(-c4cccc(COc5cc(OCc6cncc(C#N)c6)c(C(=O)NCC6(CO)CC6)cc5Cl)c4Cl)c3Cl)c(Cl)cc2C(=O)NCC2(CO)CC2)c1` [Example 80160] was tested. Which IC50 (IC50 range class) did it give?
**A.** Its IC50 is 1000 to 10000 nM.

**Q.** How did the IC50 (IC50 range class) turn out when `N#Cc1cncc(COc2cc(OCc3cccc(-c4cccc(COc5cc(OCc6cncc(C#N)c6)c(C(=O)NC6COC6)cc5Cl)c4Cl)c3Cl)c(Cl)cc2C(=O)NC2COC2)c1` [Example 80180] was run?
**A.** Its IC50 is 1000 to 10000 nM.

**Q.** For `N#Cc1cncc(COc2cc(OCc3cccc(-c4cccc(COc5cc(OCc6cncc(C#N)c6)c(C(=O)NCCO)cc5Cl)c4Cl)c3Cl)c(Cl)cc2C(=O)NCCO)c1` [Example 80200], which IC50 (IC50 range class) is on record?
**A.** The IC50 was 90.1 to 1000 nM.

**Q.** `N#Cc1cncc(COc2cc(OCc3cccc(-c4cccc(COc5cc(OCc6cncc(C#N)c6)c(C(=O)N6CCSCC6)cc5Cl)c4Cl)c3Cl)c(Cl)cc2C(=O)N2CCSCC2)c1` [Example 80220] was tested. Which IC50 (IC50 range class) did it give?
**A.** Its IC50 is 1000 to 10000 nM.

**Q.** Which IC50 (IC50 range class) does the source give for `Cc1c(COc2cc(OCc3cncc(C#N)c3)c(C(=O)N3CCC(=O)CC3)cc2Cl)cccc1-c1cccc(COc2cc(OCc3cncc(C#N)c3)c(C(=O)N3CCC(=O)CC3)cc2Cl)c1C` [Example 80230] here?
**A.** The IC50 was 20.1 to 90 nM.

**Q.** `N#Cc1cncc(COc2cc(OCc3cccc(-c4cccc(COc5cc(OCc6cncc(C#N)c6)c(C(=O)NCCO)cc5Cl)c4Cl)c3Cl)c(Cl)cc2C(=O)O)c1` [Example 90010] was tested. Which IC50 (IC50 range class) did it give?
**A.** The IC50 was 0.04 to 20 nM.

**Q.** `N#Cc1cncc(COc2cc(OCc3cccc(-c4cccc(COc5cc(OCc6cncc(C#N)c6)c(C(=O)NC6CC6)cc5Cl)c4Cl)c3Cl)c(Cl)cc2C(=O)O)c1` [Example 90020] was tested. Which IC50 (IC50 range class) did it give?
**A.** The IC50 was 20.1 to 90 nM.

**Q.** With `N#Cc1cncc(COc2cc(OCc3cccc(-c4cccc(COc5cc(OCc6cncc(C#N)c6)c(C(=O)NCCCO)cc5Cl)c4Cl)c3Cl)c(Cl)cc2C(=O)O)c1` [Example 90030] as the compound, how does the IC50 (IC50 range class) read?
**A.** The IC50 was 20.1 to 90 nM.

**Q.** `N#Cc1cncc(COc2cc(OCc3cccc(-c4cccc(COc5cc(OCc6cncc(C#N)c6)c(C(=O)NCC6(CO)CC6)cc5Cl)c4Cl)c3Cl)c(Cl)cc2C(=O)O)c1` [Example 90040] was tested. Which IC50 (IC50 range class) did it give?
**A.** Its IC50 is 90.1 to 1000 nM.

**Q.** Which IC50 (IC50 range class) does the source give for `N#Cc1cncc(COc2cc(OCc3cccc(-c4cccc(COc5cc(OCc6cncc(C#N)c6)c(C(=O)NC6COC6)cc5Cl)c4Cl)c3Cl)c(Cl)cc2C(=O)O)c1` [Example 90050] here?
**A.** The IC50 was 90.1 to 1000 nM.

**Q.** With `N#Cc1cncc(COc2cc(OCc3cccc(-c4cccc(COc5cc(OCc6cncc(C#N)c6)c(C(=O)NCC6CCCO6)cc5Cl)c4Cl)c3Cl)c(Cl)cc2C(=O)O)c1` (centres unmarked) [Example 90060] as the compound, how does the IC50 (IC50 range class) read?
**A.** The IC50 was 1000 to 10000 nM.
